Laboratory results published in patent publication US8563542B2 (Cyclacel Limited, priority 2007, dated 2013).
pIC50: −log10 of the molar value.

biological target: PLK1 (Homo sapiens, UniProt P53350); assay: PLK1 protein kinase assay (CDC25C phosphorylation, [γ-32P]-ATP); format: biochemical; settings: Table 2, PLK1 IC50; class symbols; read-out: PLK1 IC50
Sequence (P53350 whole entry): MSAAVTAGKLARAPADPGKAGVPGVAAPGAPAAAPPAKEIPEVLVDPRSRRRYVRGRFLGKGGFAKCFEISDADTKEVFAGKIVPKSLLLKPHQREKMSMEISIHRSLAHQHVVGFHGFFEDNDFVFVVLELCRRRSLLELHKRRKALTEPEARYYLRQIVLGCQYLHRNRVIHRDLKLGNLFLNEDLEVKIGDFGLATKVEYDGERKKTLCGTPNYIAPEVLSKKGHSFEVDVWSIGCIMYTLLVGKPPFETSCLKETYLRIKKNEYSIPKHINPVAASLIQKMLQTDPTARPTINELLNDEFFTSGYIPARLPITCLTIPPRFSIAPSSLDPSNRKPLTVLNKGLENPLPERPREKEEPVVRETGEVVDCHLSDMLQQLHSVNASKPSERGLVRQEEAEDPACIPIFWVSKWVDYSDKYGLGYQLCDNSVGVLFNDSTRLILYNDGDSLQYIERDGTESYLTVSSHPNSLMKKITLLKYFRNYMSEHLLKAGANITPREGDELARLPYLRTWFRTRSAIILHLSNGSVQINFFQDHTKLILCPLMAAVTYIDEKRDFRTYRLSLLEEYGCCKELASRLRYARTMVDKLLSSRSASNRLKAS

pIC50, > 5.00:
COc1cc(C(=O)N(CCO)CCO)ccc1Nc1ncc2c(n1)N(C1CCCC1)CCC(=O)N2C [compound 167, 4-(9-Cyclopentyl-5-methyl-6-oxo-6,7,8,9-tetrahydro-5H-pyrimido[4,5-b][1,4]diazepin-2-ylamino)-N,N-bis-(2-hydroxy-ethyl)-3-methoxy-benzamide]
CN1C(=O)CCN(C2CCCC2)c2nc(NC(=O)c3ccccc3)ncc21 [compound 193, N-(9-Cyclopentyl-5-methyl-6-oxo-6,7,8,9-tetrahydro-5H-pyrimido[4,5-b][1,4]diazepin-2-yl)-benzamide]
COc1cc(C(=O)NC2CCN(C)CC2)ccc1Nc1ncc2c(n1)N(C1CC1)CCC(=O)N2C [compound 207, 4-(9-Cyclopropyl-5-methyl-6-oxo-6,7,8,9-tetrahydro-5H-pyrimido[4,5-b][1,4]diazepin-2-ylamino)-3-methoxy-N-(1-methyl-piperidin-4-yl)-benzamide]

pIC50, > 6.00:
COc1cc(C(=O)NCCO)ccc1Nc1ncc2c(n1)N(C1CCCC1)CCC(=O)N2C [compound 166, 4-(9-Cyclopentyl-5-methyl-6-oxo-6,7,8,9-tetrahydro-5H-pyrimido[4,5-b][1,4]diazepin-2-ylamino)-N-(2-hydroxy-ethyl)-3-methoxy-benzamide]
COc1cc(C(=O)NCCOCCO)ccc1Nc1ncc2c(n1)N(C1CCCC1)CCC(=O)N2C [compound 168, 4-(9-Cyclopentyl-5-methyl-6-oxo-6,7,8,9-tetrahydro-5H-pyrimido[4,5-b][1,4]diazepin-2-ylamino)-N-[2-(2-hydroxy-ethoxy)-ethyl]-3-methoxy-benzamide]
CONC(=O)c1ccc(Nc2ncc3c(n2)N(C2CCCC2)CCC(=O)N3C)c(OC)c1 [compound 169, 4-(9-Cyclopentyl-5-methyl-6-oxo-6,7,8,9-tetrahydro-5H-pyrimido[4,5-b][1,4]diazepin-2-ylamino)-3,N-dimethoxy-benzamide]
COCCNC(=O)c1ccc(Nc2ncc3c(n2)N(C2CCCC2)CC(C)(C)C(=O)N3C)c(OC)c1 [compound 198, 4-(9-Cyclopentyl-5,7,7-trimethyl-6-oxo-6,7,8,9-tetrahydro-5H-pyrimido[4,5-b][1,4]diazepin-2-ylamino)-3-methoxy-N-(2-methoxy-ethyl)-benzamide]
COc1cc(C(=O)NCCN2CCOCC2)ccc1Nc1ncc2c(n1)N(C1CCCC1)CCC(=O)N2C [compound 203, 4-(9-Cyclopentyl-5-methyl-6-oxo-6,7,8,9-tetrahydro-5H-pyrimido[4,5-b][1,4]diazepin-2-ylamino)-3-methoxy-N-(2-morpholin-4-yl-ethyl)-benzamide]
COc1cc(C(=O)NC2CCN(C)CC2)ccc1Nc1ncc2c(n1)N(CCO)CCC(=O)N2C [compound 208, 4-[9-(2-Hydroxy-ethyl)-5-methyl-6-oxo-6,7,8,9-tetrahydro-5H-pyrimido[4,5-b][1,4]diazepin-2-ylamino]-3-methoxy-N-(1-methyl-piperidin-4-yl)-benzamide]
COc1cc(C(=O)NC2CCN(S(C)(=O)=O)CC2)ccc1Nc1ncc2c(n1)N(C1CCCC1)CCC(=O)N2C [compound 209, 4-(9-Cyclopentyl-5-methyl-6-oxo-6,7,8,9-tetrahydro-5H-pyrimido[4,5-b][1,4]diazepin-2-ylamino)-N-(1-methanesulfonyl-piperidin-4-yl)-3-methoxy-benzamide]
COc1cc(C(=O)NC2CCN(C(C)=O)CC2)ccc1Nc1ncc2c(n1)N(C1CCCC1)CCC(=O)N2C [compound 210, N-(1-Acetyl-piperidin-4-yl)-4-(9-cyclopentyl-5-methyl-6-oxo-6,7,8,9-tetrahydro-5H-pyrimido[4,5-b][1,4]diazepin-2-ylamino)-3-methoxy-benzamide]
CCOC(=O)CN1CCC(NC(=O)c2ccc(Nc3ncc4c(n3)N(C3CCCC3)CCC(=O)N4C)c(OC)c2)CC1 [compound 211, {4-[4-(9-Cyclopentyl-5-methyl-6-oxo-6,7,8,9-tetrahydro-5H-pyrimido[4,5-b][1,4]diazepin-2-ylamino)-3-methoxy-benzoylamino]-piperidin-1-yl}-acetic acid ethyl ester]
COc1cc(C(=O)NC2CCN(C(=O)c3ccccc3)CC2)ccc1Nc1ncc2c(n1)N(C1CCCC1)CCC(=O)N2C [compound 212, N-(1-Benzoyl-piperidin-4-yl)-4-(9-cyclopentyl-5-methyl-6-oxo-6,7,8,9-tetrahydro-5H-pyrimido[4,5-b][1,4]diazepin-2-ylamino)-3-methoxy-benzamide]

pIC50, > 7.00:
CCN(CC)CCNC(=O)c1ccc(Nc2ncc3c(n2)N(C2CCCC2)CC2(CC2)C(=O)N3C)c(OC)c1 [compound 182, 4-(9-Cyclopentyl-5-methyl-6-oxo-6,7,8,9-tetrahydro-5H-spiro[pyrimido[4,5-b][1,4]diazepin-3,1′-cyclopropane]-2-ylamino)-N-(2-diethylamino-ethyl)-3-methoxy-benzamide]
COc1cc(C(=O)NCCCN(C)C)ccc1Nc1ncc2c(n1)N(C1CCCC1)CC1(CC1)C(=O)N2C [compound 183]
COc1cc(C(=O)NCCCCO)ccc1Nc1ncc2c(n1)N(C1CCCC1)CC1(CC1)C(=O)N2C [compound 185, 4-(9-Cyclopentyl-5-methyl-6-oxo-6,7,8,9-tetrahydro-5H-spiro[pyrimido[4,5-b][1,4]diazepin-3,1′-cyclopropane]-2-ylamino)- -N-(4-hydroxy-butyl)-3-methoxy-benzamide]
COc1cc(C(=O)NC2CCCN(C)C2)ccc1Nc1ncc2c(n1)N(C1CCCC1)CC1(CC1)C(=O)N2C (centres unmarked) [compound 187, 4-(9-Cyclopentyl-5-methyl-6-oxo-6,7,8,9-tetrahydro-5H-spiro[pyrimido[4,5-b][1,4]diazepin-3,1-cyclopropane]-2-ylamino)-3-methoxy-N-(1-methyl-piperidin-3-yl)-benzamide]
COc1cc(C(=O)NCCO)ccc1Nc1ncc2c(n1)N(C1CCCC1)CC1(CC1)C(=O)N2C [compound 188, 4-(9-Cyclopentyl-5-methyl-6-oxo-6,7,8,9-tetrahydro-5H-spiro[pyrimido[4,5-b][1,4]diazepin-3,1′-cyclopropane]-2-ylamino)-N-(2-hydroxy-ethyl)-3-methoxy-benzamide]
COc1cc(C(=O)NCCOCCO)ccc1Nc1ncc2c(n1)N(C1CCCC1)CC1(CC1)C(=O)N2C [compound 189, 4-(9-Cyclopentyl-5-methyl-6-oxo-6,7,8,9-tetrahydro-5H-spiro[pyrimido[4,5-b][1,4]diazepin-3,1′-cyclopropane]-2-ylamino)-N-[2-(2-hydroxy-ethoxy)-ethyl]-3-methoxy-benzamide]
CONC(=O)c1ccc(Nc2ncc3c(n2)N(C2CCCC2)CC2(CC2)C(=O)N3C)c(OC)c1 [compound 190, 4-(9-Cyclopentyl-5-methyl-6-oxo-6,7,8,9-tetrahydro-5H-spiro[pyrimido[4,5-b][1,4]diazepin-3,1′-cyclopropane]-2-ylamino)-3,N-dimethoxy-benzamide]
COc1cc(C(=O)NCC2CCN(C)CC2)ccc1Nc1ncc2c(n1)N(C1CCCC1)CC(C)(C)C(=O)N2C [compound 196]
COc1cc(C(=O)NC2CCN(Cc3ccccc3)CC2)ccc1Nc1ncc2c(n1)N(C1CCCC1)CC(C)(C)C(=O)N2C [compound 197, N-(1-Benzyl-piperidin-4-yl)-4-(9-cyclopentyl-5,7,7-trimethyl-6-oxo-6,7,8,9-tetrahydro-5H-pyrimido[4,5-b][1,4]diazepin-2-ylamino)-3-methoxy-benzamide]
COc1cc(C(=O)NCc2ccncc2)ccc1Nc1ncc2c(n1)N(C1CCCC1)CC(C)(C)C(=O)N2C [compound 199, 4-(9-Cyclopentyl-5,7,7-trimethyl-6-oxo-6,7,8,9-tetrahydro-5H-pyrimido[4,5-b][1,4]diazepin-2-ylamino)-3-methoxy-N-pyridin-4-yl-ylmethyl-benzamide]
COc1cc(C(=O)NCCc2c[nH]cn2)ccc1Nc1ncc2c(n1)N(C1CCCC1)CC(C)(C)C(=O)N2C [compound 200, 4-(9-Cyclopentyl-5,7,7-trimethyl-6-oxo-6,7,8,9-tetrahydro-5H-pyrimido[4,5-b][1,4]diazepin-2-ylamino)-N-[2-(1H-imidazol-4-yl)-ethyl]-3-methoxy-benzamide]
COc1cc(C(=O)NCc2ccco2)ccc1Nc1ncc2c(n1)N(C1CCCC1)CC(C)(C)C(=O)N2C [compound 201, 4-(9-Cyclopentyl-5,7,7-trimethyl-6-oxo-6,7,8,9-tetrahydro-5H-pyrimido[4,5-b][1,4]diazepin-2-ylamino)-N-furan-2-ylmethyl-3-methoxy-benzamide]
COc1cc(C(=O)NCC2CCCCN2C)ccc1Nc1ncc2c(n1)N(C1CCCC1)CCC(=O)N2C (centres unmarked) [compound 202, 4-(9-Cyclopentyl-5-methyl-6-oxo-6,7,8,9-tetrahydro-5H-pyrimido[4,5-b][1,4]diazepin-2-ylamino)-3-methoxy-N-(1-methyl-piperidin-2-ylmethyl)-benzamide]
COc1cc(C(=O)NC2CCCC2)ccc1Nc1ncc2c(n1)N(C1CCCC1)CCC(=O)N2C [compound 204, N-Cyclopentyl-4-(9-cyclopentyl-5-methyl-6-oxo-6,7,8,9-tetrahydro-5H-pyrimido[4,5-b][1,4]diazepin-2-ylamino)-3-methoxy-benzamide]
COc1cc(C(=O)NCc2cccn2C)ccc1Nc1ncc2c(n1)N(C1CCCC1)CCC(=O)N2C [compound 205, 4-(9-Cyclopentyl-5-methyl-6-oxo-6,7,8,9-tetrahydro-5H-pyrimido[4,5-b][1,4]diazepin-2-ylamino)-3-methoxy-N-(1-methyl-1H-pyrrol-2-ylmethyl)-benzamide]
COc1cc(C(=O)NC2CCNCC2)ccc1Nc1ncc2c(n1)N(C1CCCC1)CCC(=O)N2C [compound 206, 4-(9-Cyclopentyl-5-methyl-6-oxo-6,7,8,9-tetrahydro-5H-pyrimido[4,5-b][1,4]diazepin-2-ylamino)-3-methoxy-N-piperidin-4-yl-benzamide]
